In patent US20160199463A1, “HDAC2 DEFENDS VASCULAR ENDOTHELIUM FROM INJURY” (The Johns Hopkins University, priority 2014, published 2016):

Legend:
human ARG2 promoter = assay: Human Arg2 promoter assay using luciferase activity in HAECs; format: cell-based
Experimental: Chromosomal DNA was prepared from HAECs using Trizol reagent as per manufacturer's protocol (Life sciences). Promoter fragments of Arg2 were amplified by PCR using specific primer sets as follows.
PI Forward 5′-GGGCTCGAGTGAGGTGAAATAAATTTCAGGAGTTTA-3′ (SEQ ID NO: 24); Reverse 5′-GCCAAGCTTAGCCGGGAGTGAGCGCCACCGCCC-3′ (SEQ ID NO: 25), 1 Kb; PII Forward 5′-GGGCTCGAGATAACCAGCGCTCCCGTTATTCAG-3′ (SEQ ID NO: 26); Reverse 5′-GCCAAGCTTAGCCGGGAGTGAGCGCCACCGCCC-3′ (SEQ ID NO: 27), 0.3 Kb; PIII Forward 5′-GGGCTCGAGGTTCAGGAACCTGGCATGGGCCGG-3′ (SEQ ID NO: 28); Reverse 5′-GCCAAGCTTAGCCGGGAGTGAGCGCCACCGCCC-3′ (SEQ ID NO: 29), 0.65 Kb; PIV Forward 5′-GGGCTCGAGTGAGGTGAAATAAATTTCAGGAGTTTA-3′ (SEQ ID NO: 30); Reverse 5′-GCCAAGCTTCCGGCCCATGCCAGGTTCCTGAAC-3′ (SEQ ID NO: 31), 0.3 kb.
These were cloned into the restriction sites for XhoI and HindIII on the pGL3-enhancer vector (Promega Co.). HAECs were transfected with the plasmids using Fugene 6 reagent (Roche Co.) and luciferase activity was measured by Dual-luciferase reporter assay system (Promega Co.). The luciferase activity was reported as relative luciferase units by dividing firefly luciferase activity by Renilla luciferase activity.

Arg2 ubiquitination = Arg2 ubiquitination in HAECs (immunoprecipitation); format: cell-based, human; conditions: preincubation with TSA; MG132 10 μmol/L in all groups
Experimental: After 48 hrs of HAEC cells transfection, cells were lysed in ice cold RIPA lysis buffer consisting of 20 mM Tris-HCl at pH 7.5, 150 mM NaCl, 1 mM EDTA, 1 mM EGTA, 1% NP40, 1% sodium deoxycholate, 1 mM Na3VO4, 2.5 mM sodium pyrophosphate, 1 mM 3-glycerophosphate, 1 μg/mL leupeptin, and a 1:1000 diluted protease inhibitor cocktail (Sigma). For immunoprecipitation studies, whole cell lysate lysates were centrifuged at 14,000×g and supernatants were precleared by incubation with Protein A/G-agarose beads for 2 h at 4° C. with rocking. Agarose beads were then pelleted by centrifugation at 1,000×g. FLAG-Arg2 in precleared lysates were immunoprecipitated by incubation overnight at 4° C. with rocking following addition of anti-FLAG antibody (10 μl). Immune complexes were eluted in 2×SDS sample buffer by boiling for 5 minutes before loading into SDS-PAGE. Western blotting analysis was performed by transferring the SDS gel onto a PVDF membrane and visualized using secondary antibodies conjugated to alkaline phosphatases.
Posttranslational modification by ubiquitin subjects proteins to proteasomal degradation and, therefore, affects their abundance. Because both acetylation and ubiquitination target lysine residues of proteins, there is a significant cross talk between these 2 pathways (Yang et al., 2008 Mol Cell, 31:449-461). […]

[1] = system: calcium-insensitive eNOS in HEK 293 cells; assay: NO radicals in medium of HEK 293 cells expressing calcium-insensitive eNOS (DCFH-DiOxyQ assay); format: cell-based, human; conditions: TSA alone
Experimental: Nitric Oxide levels in HAEC were determined using DAF-DA as per manufacture instructions (Life Sciences). Briefly, cells were loaded with DAF-DA (5 μM) for 20 min and washed 3 times with PBS and incubated for another 30 min in phenol-free media. Fluorescence was determined using a Nikon TE-200 epifluorescence microscope. Images were captured with a Rolera EMC2 camera (Q-Imaging, BC, Canada) with Velocity software (PerkinElmer, Lexington, Mass.). NO production in the cell culture media was also determined by measuring Nitrite levels using a Siever's NO analyzer. NO radicals were measured in cell media collected after 24 hours of treatment using the Oxiselect assay (Cell Biolabs, San Diego, Calif.).
Next, the functional consequences of HDAC inhibition on downstream endothelial cell signaling were evaluated. Because eNOS-derived NO plays a central role in endothelial function, eNOS activity was assessed by measuring NO production using 3 different assays. […] HEK 293 cells lack native eNOS expression, but do produce abundant Arg2. Cell medium from 293 cells transfected with a control plasmid (LacZ) was used as a control background signal that was subtracted from all the groups containing calcium-insensitive endothelial nitric oxide synthase.

SIRT = conditions: cited from earlier work

CC(/C=C/C(=O)NO)=C\[C@@H](C)C(=O)c1ccc(N(C)C)cc1 [TSA, trichostatin A]
Arg2 promoter activity (luciferase) (human ARG2 promoter; TSA 1 μmol/L, 8 hours, versus vehicle): increased
Arg2 promoter activity, dose dependence (human ARG2 promoter; increasing doses of TSA): dose dependent
ubiquitination of Arg2 (Arg2 ubiquitination): no effects
NO production [1]: decreased
block of SIRT (SIRT): do not block
